Test results taken from patent US20120082626A1, “USE OF R-BAMBUTEROL AS INHALED MEDICAMENT AND COMBINATION THERAPIES FOR TREATMENT OF RESPIRATORY DISORDERS” (priority 2009, published 2012).

Columns and labels:
[1] = oral; cited from earlier work
[2] = tested on: OVA evoked asthma in sensitized guinea pigs; assay: Airway resistance in OVA asthma attack after oral administration in sensitized guinea pigs; format: in vivo
Experimental: Sensitized animals were divided into Saline (control), S-Bambuterol and R-bambuterol groups. R or S bambuterol were administered by both inhalation by oral ([…]). Airway resistance (Raw) and dynamic pulmonary compliance (Cdyn) were measured at resting or during astham challenge by OVA. Animal preparation and experimental methods were similar as described previously.

Structure (SMILES): CN(C)C(=O)Oc1cc(OC(=O)N(C)C)cc([C@@H](O)CNC(C)(C)C)c1 [R-bambuterol]
- time of maximum concentration (tmax) [1]: around one
- change in Raw / asthmatic response during the asthmatic attack by OVA ([2]; oral): little changes in Raw
- Changes in Airway resistance (Raw) at 4th min after OVA challenge ([2]; pretreated oral 4 m/kg, n=8): 0.14 ± 0.13
- Changes in Airway resistance (Raw) at 5th min after OVA challenge ([2]; pretreated oral 4 m/kg, n=8): 0.11 ± 0.08
